Laboratory results taken from paper PMC10439952, “JT002, a small molecule inhibitor of the NLRP3 inflammasome for the treatment of autoinflammatory disorders” (Scientific Reports, 2023).

Tests used:
[1] = test system: autocatalytic cleavage of pro-caspase-1 (p45) into the p10 subunit; test: Western blot for caspase-1 p10 in LPS + nigericin stimulated mouse BMDM lysates and supernatants; type: cell-based; conditions: LPS + nigericin treated mBMDMs, compound 10 µM
Protocol: BMDMs were activated with LPS and nigericin as described above and were lysed in situ with 50 μL of 4× NuPAGE LDS sample buffer (Fisher Scientific, Hampton, NH) + 5% β-mercaptoethanol and prepared for polyacrylamide gel electrophoresis. Samples were run on NuPAGE Bis–Tris gels (Fisher Scientific, Hampton, NH) and transferred to polyvinylidene difluoride (PVDF) membranes (Fisher Scientific, Hampton, NH) using the iBlot® 2 Dry Blotting System (Fisher Scientific, Hampton, NH). Washed PVDF membranes were blocked and then probed with the following primary antibodies: procaspase-1 + p10 + p12 [EPR16883] (Abcam, Cambridge, MA), β-actin (AC-74, Sigma-Aldrich, St. Louis, MO) and NLRP3 [Cryo-2] (AdipoGen Life Sciences, San Diego, CA). Bound primary antibodies were detected using HRP-labeled secondary antibodies and membranes were imaged with an Azure c300 imager (Azure Biosystems, Dublin, CA). Bands were quantitated using ImageJ software.

[2] = set-up: method as in PMID 26206150; conditions: daily dose of 1200 mg; development terminated; cited from earlier work
[3] = test system: murine house dust mite model of severe corticosteroid-resistant asthma; set-up: method as in PMID 28528200; conditions: i.p. administration; cited from earlier work

Structure (SMILES) | formation of the caspase-1 p10 subunit (autocatalytic cleavage of pro-caspase-1) [1] | p10 component in cell supernatants [1] | liver safety in the clinic [2] | bronchoalveolar lavage IL-1β concentrations [3] | bronchoalveolar lavage neutrophilia [3] | development of airway hyperresponsiveness [3]
CCOC(=O)C1=CCCC[C@H]1S(=O)(=O)Nc1ccc(F)cc1Cl [TAK242, ethyl (6R)-6-[N-(2-Chloro-4-fluorophenyl)sulfamoyl]cyclohex-1-ene-1-carboxylate] | did not inhibit the autocatalytic cleavage of pro-caspase-1 into the p10 subunit | appearance of the p10 component in cell supernatants | – | – | – | –
CC(C)(O)c1coc(S(=O)(=O)NC(=O)Nc2c3c(cc4c2CCC4)CCC3)c1 [MCC950] | blocked formation of the p10 subunit and its release from the cell | – | drug induced liver injury (DILI) detected | reduced | reduced | completely prevented
C[C@H](NC(=O)C(=O)Nc1ccccc1C(C)(C)C)C(=O)N[C@@H](CC(=O)O)C(=O)COc1c(F)c(F)cc(F)c1F [emricasan] | did not inhibit the autocatalytic cleavage of pro-caspase-1 into the p10 subunit | – | – | – | – | –
